The results in this text go back to publication PMC10307939 (Pharmacology Research & Perspectives, 2023).

For assay [1], the system named is male and female ICR mice. The assay is described as follows: Horizontal locomotor activity, 60‐min session. The format is in vivo, mouse. The following applies: for Effect on locomotor activity: SC, drug alone; for Emax / ED50: Mus musculus, sc; for Emax: 1 h, read-out: E max (95%CL), % Methadone E max; for ED50: read-out: ED50 (95% CL).
Assay [2] concerns the target T1, mouse kappa opioid receptor (Mus musculus, UniProt P33534). In words: Radioligand competition binding, mKOR‐CHO membranes. Conditions: for MOR/KOR (fold selectivity for MOR over KOR): K i at KOR divided by K i at MOR. On the technique in general: In a radioligand displacement assay an active substance lowers the binding of a labelled ligand.
The target of assay [3] is T2, human delta‐opioid receptor (Homo sapiens, UniProt P41143). In words: Radioligand competition binding, hDOR‐CHO membranes. The following applies: for MOR/DOR (fold selectivity for MOR over DOR): K i at DOR divided by K i at MOR.
The target in assay [4] is T1, mouse kappa opioid receptor. The assay is described as follows: biochemical. The format is biochemical. Conditions: for Emax: read-out: KOR E max.
Assay [5] deals with T2, human delta‐opioid receptor. In words: Ligand‐stimulated [35S]GTPγS binding, hDOR‐CHO membranes. Type of assay: biochemical. Conditions: for Emax: read-out: DOR E max. A general note: GTPγS is a poorly hydrolysed GTP analogue; its binding reports G protein activation.
For assay [6], the system named is male and female ICR mice. The assay is described as follows: Naltrexone antagonism of test‐drug locomotor activation. Conditions: 1.0 mg/kg naltrexone SC 10 min before test drug. The format is in vivo, mouse.
Assay [7] has as its target T3, mouse mu‐opioid receptor (Mus musculus, UniProt P42866). In words: Radioligand competition binding, mMOR‐CHO membranes. The following applies: for Ki: MOR K i, [3H]naloxone, mMOR‐CHO membranes, mean ± SEM (n = 3–6).
For assay [8], the target named is T3, mouse mu‐opioid receptor. In words: Ligand‐stimulated [35S]GTPγS binding, mMOR‐CHO membranes. The following applies: for Emax: read-out: MOR E max. The format is biochemical.
Assay [9] has as its system male and female ICR mice. The assay is described as follows: Test‐drug antagonism of morphine locomotor activation. The format is in vivo, mouse. Conditions: test drug SC 10 min before 32 mg/kg SC morphine.

“Also recorded” adds a separate entry of the source. Counter-ions that a name gives are not always drawn.

In the case of `CCC(=O)C(CC(C)N(C)C)(c1ccccc1)c1ccccc1` (racemic) [Methadone, (±) Methadone HCl, reference compound], in the assay with male and female ICR mice [1] (32 mg/kg SC, 60‐min session), the Total locomotor counts is on record as 7500.1 counts. Moreover, in the assay with male and female ICR mice [1] (32 mg/kg vs. saline vehicle), the “Mean maximum increase in locomotor counts” value was determined as 5149.8 counts. For the same molecule, the “Effect on locomotor activity” value with male and female ICR mice [1] is “dose‐dependent increase in locomotor activity”.
Turning to `C=C[C@@H]1[C@H]2CCC[C@]1(c1cccc(O)c1)CCN2CCc1ccccc1` [DC‐1‐76.1, 3‐((1R,5S,9S)‐2‐phenethyl‐9‐vinyl‐2‐azabicyclo[3.3.1]nonan‐5‐yl)phenol], in assay [2], the Ki was 0.0529 ± 0.00111 µM and the “MOR/KOR (fold selectivity for MOR over KOR)” value is given as 27.7 fold. For the same molecule, in [3], affinity was put at a Ki of 3.39 ± 0.268 µM and the “MOR/DOR (fold selectivity for MOR over DOR)” value stood at 1773.3 fold. In addition, the “KOR E max” value in assay [4] was “No stim”. Besides, in [5], the EC50 amounted to 1.16 ± 0.214 µM and the Emax is -0.7 ± 2.12%. In addition, in the assay with male and female ICR mice [1], the Emax stood at 34.3% and the ED50 was determined as 0.72 mg/kg. Besides, in the assay with male and female ICR mice [6], the “Effect of naltrexone pretreatment on locomotor‐activating dose of test drug” value (“Effect of naltrexone pretreatment” for short) is given as “significantly attenuated”.
Consider `C=C[C@H]1[C@H]2CCC[C@]1(c1cccc(O)c1)CCN2CCc1ccccc1` [DC‐1‐76.2, 3‐((1R,5S,9R)‐2‐phenethyl‐9‐vinyl‐2‐azabicyclo[3.3.1]nonan‐5‐yl)phenol], for which, in assay [2], the Ki is 0.044 ± 0.00298 µM and the “MOR/KOR (fold selectivity for MOR over KOR)” value worked out at 88.5 fold. Besides, in [3], the affinity, expressed as Ki, was 0.347 ± 0.0456 µM and the “MOR/DOR (fold selectivity for MOR over DOR)” value was 698.5 fold. In addition, the “KOR E max” value in assay [4] is listed as “No stim”. For the same molecule, in [5], a half-maximal effect (EC50) was put at 0.16 ± 0.142 µM and the Emax is -6.34 ± 0.78%. In addition, in the assay on male and female ICR mice [1], the Emax worked out at 87.6% and the median effective dose (ED50) came to 0.47 mg/kg. Moreover, the “Effect of naltrexone pretreatment” value in the assay on male and female ICR mice [6] is listed as “significantly attenuated”.
Regarding `C/C=C\[C@H]1[C@H]2CCC[C@]1(c1cccc(O)c1)CCN2CCc1ccccc1` [DC‐1‐90.2, 3‐((1R,5S,9R)‐2‐phenethyl‐9‐((Z)‐prop‐1‐en‐1‐yl)‐2‐azabicyclo[3.3.1]nonan‐5‐yl)phenol], in assay [2], the Ki worked out at 0.0345 ± 0.00077 µM and the “MOR/KOR (fold selectivity for MOR over KOR)” value came to 18.8 fold. In addition, in assay [3], affinity was put at a Ki of 0.43 ± 0.0417 µM and the “MOR/DOR (fold selectivity for MOR over DOR)” value is recorded as 235.0 fold. In assay [4], the “KOR E max” value is reported as “No stim”. For the same molecule, in [5], the 50% effective concentration (EC50) stood at 0.253 ± 0.133 µM and the Emax was -6.97 ± 0.46%.
On to `C/C=C\[C@@H]1[C@H]2CCC[C@]1(c1cccc(O)c1)CCN2CCc1ccccc1` [DC‐1‐128.1, 3‐((1R,5S,9S)‐2‐phenethyl‐9‐((Z)‐prop‐1‐en‐1‐yl)‐2‐azabicyclo [3.3.1]nonan‐5‐yl)phenol], for which, in [2], the Ki turned out to be 0.0633 ± 0.00743 µM and the “MOR/KOR (fold selectivity for MOR over KOR)” value is 112.6 fold. Moreover, in [3], the affinity corresponds to a Ki of 0.318 ± 0.047 µM and the “MOR/DOR (fold selectivity for MOR over DOR)” value amounted to 565.2 fold. Further, in assay [4], the “KOR E max” value is recorded as “no KOR activation; also recorded: No stim”. Further, in [5], a half-maximal response (EC50) required 0.503 ± 0.118 µM and the Emax came out at 31.4 ± 2.23%. In [5] (higher potency at MOR than at DOR), the “Fold difference in [35S]GTPγS potency, MOR versus DOR” value is reported as “more than 60 fold”. In the assay on male and female ICR mice [1], the Emax was 80.1% and the 50% effective dose (ED50) amounted to 0.19 mg/kg. Moreover, the “Effect of naltrexone pretreatment” value in the assay with male and female ICR mice [6] is reported as “significantly attenuated”.
Regarding `CCC[C@H]1[C@@H]2CCC[C@@]1(c1cccc(O)c1)CCN2CCc1ccccc1` [EG‐1‐203, 3‐((1S,5R,9R)‐2‐phenethyl‐9‐propyl‐2‐azabicyclo[3.3.1]nonan‐5‐yl)phenol], the inhibitory constant (Ki) on mouse mu‐opioid receptor [7] is 0.000761 ± 3.1e-05 µM; in assay [2] it was 0.0223 ± 0.00466 µM; in assay [3] it was 0.0665 ± 0.0077 µM. In addition, the “MOR/KOR (fold selectivity for MOR over KOR)” value in assay [2] was 29.3 fold. Besides, in assay [3], the “MOR/DOR (fold selectivity for MOR over DOR)” value is recorded as 87.4 fold. The results for the half-maximal effective concentration (EC50) (on mouse mu‐opioid receptor [8]; in assay [4]; in assay [5]) were 0.0242 ± 0.0138 µM, 0.125 ± 0.0887 µM and 0.037 ± 0.0177 µM, respectively. The Emax on mouse mu‐opioid receptor [8] is 4.79 ± 0.6%; in [4], -3.49 ± 0.67%; in assay [5] it was -11.6 ± 3.08%; with male and female ICR mice [1] it was 13%. For the same molecule, the median effective dose (ED50) in the assay on male and female ICR mice [1] is 5.42 mg/kg. In the assay with male and female ICR mice [9], the “Effect of test‐drug pretreatment on locomotor‐activating effects of morphine” value is “significantly attenuated”.
Consider `OC/C=C/[C@H]1[C@@H]2CCC[C@@]1(c1cccc(O)c1)CCN2CCc1ccccc1` [EG‐1‐230, 3‐((1S,5R,9R)‐9‐((E)‐3‐hydroxyprop‐1‐en‐1‐yl)‐2‐phenethyl‐2‐azabicyclo[3.3.1]nonan‐5‐yl)phenol], for which the Ki at mouse mu‐opioid receptor [7] was 0.00422 ± 0.000177 µM; in assay [2] it was 0.0459 ± 0.00708 µM; in [3], 1.01 ± 0.147 µM. Also, the “MOR/KOR (fold selectivity for MOR over KOR)” value in assay [2] is listed as 10.9 fold. For the same molecule, in assay [3], the “MOR/DOR (fold selectivity for MOR over DOR)” value was determined as 238.5 fold. Moreover, the concentration for a half-maximal effect (EC50) amounted to 0.0241 ± 0.012 µM at mouse mu‐opioid receptor [8], 0.0207 ± 0.0056 µM in [4] and 0.517 ± 0.366 µM in assay [5]. Further, the Emax on mouse mu‐opioid receptor [8] was 0.67 ± 0.79%; in assay [4] it was -3.97 ± 0.65%; in assay [5] it was -10.6 ± 3.58%; in the assay with male and female ICR mice [1] it was 2.2%. In addition, the “Effect on locomotor activity” value in the assay on male and female ICR mice [1] is “inactive when administered alone”. The “Effect of test‐drug pretreatment on locomotor‐activating effects of morphine” value with male and female ICR mice [9] is “significantly attenuated”.
On to `OCC[C@H]1[C@@H]2CCC[C@@]1(c1cccc(O)c1)CCN2CCc1ccccc1` [JL‐2‐39, 3‐((1S,5R,9R)‐9‐(2‐hydroxyethyl)‐2‐phenethyl‐2‐azabicyclo[3.3.1]nonan‐5‐yl)phenol], for which, on mouse mu‐opioid receptor [7], the affinity, expressed as Ki, was 0.000394 ± 3.5e-05 µM. Further, the “Fold higher MOR affinity than DC‐1‐76.1” value on mouse mu‐opioid receptor [7] (relative to DC‐1‐76.1) is reported as ~ 5 fold. Also, in assay [2], the Ki came out at 0.0171 ± 0.00222 µM and the “MOR/KOR (fold selectivity for MOR over KOR)” value was 43.4 fold. For the same molecule, in assay [3], the Ki amounted to 0.473 ± 0.0412 µM and the “MOR/DOR (fold selectivity for MOR over DOR)” value was determined as 1199.2 fold. Besides, on mouse mu‐opioid receptor [8], the EC50 came to 0.00709 ± 0.0037 µM and the Emax was 13 ± 1.48%. For the same molecule, the “Fold more potent than DC‐1‐76.1 in vitro ([35S]GTPɣS binding, MOR CHO cells)” value on mouse mu‐opioid receptor [8] (relative to DC‐1‐76.1) was ~ 5 fold. Also, the “KOR E max” value in [4] is recorded as “No stim”. Besides, in the assay with male and female ICR mice [1], the Emax was found to be 87.1% and the ED50 was 2.85 mg/kg. Besides, the “Fold less potent than DC‐1‐76.1 in vivo (locomotor activity)” value in the assay on male and female ICR mice [1] (relative to DC‐1‐76.1) is recorded as ~ 4 fold. The “Effect of naltrexone pretreatment” value in the assay with male and female ICR mice [6] is on record as “significantly attenuated”.
For `CN1c2ccccc2C(NCCCCCCC(=O)O)c2ccc(Cl)cc2S1(=O)=O` (centres unmarked) [Tianeptine, reference compound], on mouse mu‐opioid receptor [7], the affinity corresponds to a Ki of 0.0782 ± 0.00993 µM. For the same molecule, the inhibition constant (Ki) in assay [3] was determined as 2.83 ± 0.416 µM. For the same molecule, at mouse mu‐opioid receptor [8], the EC50 stood at 6.44 ± 0.622 µM and the Emax amounted to 110 ± 3.6%. For the same molecule, the “KOR E max” value in [4] is recorded as “No stim”. Besides, the “Effect of naltrexone pretreatment” value in the assay with male and female ICR mice [6] was “significantly attenuated”.

One may read the Ki as a measure of affinity in units of concentration, obtained from inhibition or displacement. Read a high Ki as a looser hold on the target. As a reminder, the EC50 is the concentration giving half of the maximal effect. For orientation: ED50 means the dose that gives a 50% effect, or the effect in half of the subjects.
